Data: patent EP0013067A1, “Bicyclic beta-lactam antibacterial agents, their use in pharmaceutical compositions, processes for their preparation and intermediates for use in such processes” (BEECHAM GROUP PLC, priority 1978, dated 1980)
≈ marks a conversion by molar mass, not a printed value.

Experiments:
Type in all cases: cell-based
Escherichia coli JT 39 [1] = test: MIC, DST agar + 10% horse blood; conditions: JT39; Escherichia coli JT 39; DST agar + 10% horse blood; inoculum 0.001 ml of an undilute overnight broth culture; unit inferred; read-out: MIC Agar
Description: (§1) The ninimum inhibitory concentrations (MIC) cf this compound required to inhibit the growth of various bacteria are tabulated balow: […]

Serratia marcescens US20 [2] = test: MIC, DST agar + 10% horse blood; conditions: Serratia marcescens US20; DST agar + 10% horse blood; inoculum 0.001 ml of an undilute overnight broth culture; unit inferred; read-out: MIC Agar
Description: as §1

Proteus rettgeri WM16 = test: MIC, DST agar + 10% horse blood; conditions: Providencia rettgeri; Proteus rettgeri WM16; DST agar + 10% horse blood; inoculum 0.001 ml of an undilute overnight broth culture; unit inferred; read-out: MIC Agar
Description: as §1

Proteus vulgaris W091 = test: MIC, DST agar + 10% horse blood; conditions: W091; Proteus vulgaris WO91; DST agar + 10% horse blood; inoculum 0.001 ml of an undilute overnight broth culture; unit inferred; read-out: MIC Agar
Description: as §1

[3] = system: Streptococcus pyogenes CN10; test: MIC, DST agar + 10% horse blood; conditions: Streptococcus pyogenes CN10; DST agar + 10% horse blood; inoculum 0.001 ml of an undilute overnight broth culture; unit inferred; read-out: MIC Agar
Description: as §1

Proteus mirabilis C977 [4] = test: MIC, DST agar + 10% horse blood; conditions: Proteus mirabilis C977; DST agar + 10% horse blood; inoculum 0.001 ml of an undilute overnight broth culture; unit inferred; read-out: MIC Agar
Description: as §1

Enterobacter cloacae N1 [5] = test: MIC, DST agar + 10% horse blood; conditions: Enterobacter cloacae N1; DST agar + 10% horse blood; inoculum 0.001 ml of an undilute overnight broth culture; unit inferred; read-out: MIC Agar
Description: as §1

Escherichia coli 0111 [6] = test: MIC, DST agar + 10% horse blood; conditions: Escherichia coli, 0111, inoculum 0.001 ml of an undilute overnight broth culture, unit inferred
Description: as §1

Pseudomonas aeruginosa A [7] = test: MIC, DST agar + 10% horse blood; conditions: Pseudomonas aeruginosa, read-out: MIC Agar
Description: as §1

[8] = system: Staphylococcus aureus Russell; test: MIC, DST agar + 10% horse blood; conditions: Staphylococcus aureus Russell; DST agar + 10% horse blood; inoculum 0.001 ml of an undilute overnight broth culture; unit inferred; read-out: MIC Agar
Description: as §1

Streptococcus faecalis I [9] = test: MIC, DST agar + 10% horse blood; conditions: Enterococcus faecalis; Streptococcus faecalis I; DST agar + 10% horse blood; inoculum 0.001 ml of an undilute overnight broth culture; unit inferred; read-out: MIC Agar
Description: as §1

E. coli ESS [10] = test: MIC, DST agar + 10% horse blood; conditions: Escherichia coli, inoculum 0.001 ml of an undilute overnight broth culture, unit inferred
Description: as §1

Shigella sonnei MB 11967 [11] = test: MIC, DST agar + 10% horse blood; conditions: MB11967, inoculum 0.001 ml of an undilute overnight broth culture, unit inferred
Description: as §1

Proteus morganii I580 [12] = test: MIC, DST agar + 10% horse blood; conditions: Morganella morganii; Proteus morganii I580; DST agar + 10% horse blood; inoculum 0.001 ml of an undilute overnight broth culture; unit inferred; read-out: MIC Agar
Description: as §1

[13] = system: Streptococcus pneumoniae CN33; test: MIC, DST agar + 10% horse blood; conditions: Streptococcus pneumoniae CN33; DST agar + 10% horse blood; inoculum 0.001 ml of an undilute overnight broth culture; unit inferred; read-out: MIC Agar
Description: as §1

Bacillus subtilis A = test: MIC, DST agar + 10% horse blood; conditions: Bacillus subtilis A; DST agar + 10% horse blood; inoculum 0.001 ml of an undilute overnight broth culture; unit inferred; read-out: MIC Agar
Description: as §1

[14] = system: Staphylococcus aureus Oxford; test: MIC, DST agar + 10% horse blood; conditions: Staphylococcus aureus Oxford; DST agar + 10% horse blood; inoculum 0.001 ml of an undilute overnight broth culture; unit inferred; read-out: MIC Agar
Description: as §1

Klebsiella aerogenes A [15] = test: MIC, DST agar + 10% horse blood; conditions: Klebsiella aerogenes A; DST agar + 10% horse blood; inoculum 0.001 ml of an undilute overnight broth culture; unit inferred; read-out: MIC Agar
Description: as §1

[16] = system: Salmonella typhimurium CT10; test: MIC, DST agar + 10% horse blood; conditions: Salmonella enterica, TYPHIMURIUM, read-out: MIC Agar
Description: as §1

[17] = system: Staphylococcus aureus 1517; test: MIC, DST agar + 10% horse blood; conditions: Staphylococcus aureus 1517; DST agar + 10% horse blood; inoculum 0.001 ml of an undilute overnight broth culture; unit inferred; read-out: MIC Agar
Description: as §1

Citrobacter freundii E8 [18] = test: MIC, DST agar + 10% horse blood; conditions: Citrobacter freundii, E8, read-out: MIC Agar
Description: as §1

Escherichia coli JT 39 [19] = test: MIC, microtitre using Nutrient broth; conditions: JT39; Escherichia coli JT 39; Microtitre using Nutrient broth; inoculum 0.001 ml of an undilute overnight broth culture; unit inferred; read-out: MIC Broth
Description: as §1

Serratia marcescens US20 [20] = test: MIC, microtitre using Nutrient broth; conditions: inoculum 0.001 ml of an undilute overnight broth culture, unit inferred
Description: as §1

[21] = system: Streptococcus pyogenes CN10; test: MIC, microtitre using Nutrient broth; conditions: inoculum 0.001 ml of an undilute overnight broth culture, unit inferred
Description: as §1

Proteus mirabilis C977 [22] = test: MIC, microtitre using Nutrient broth; conditions: Proteus mirabilis C977; Microtitre using Nutrient broth; inoculum 0.001 ml of an undilute overnight broth culture; unit inferred; read-out: MIC Broth
Description: as §1

Enterobacter cloacae N1 [23] = test: MIC, microtitre using Nutrient broth; conditions: Microtitre using Nutrient broth, inoculum 0.001 ml of an undilute overnight broth culture, unit inferred
Description: as §1

Escherichia coli 0111 [24] = test: MIC, microtitre using Nutrient broth; conditions: Microtitre using Nutrient broth, inoculum 0.001 ml of an undilute overnight broth culture, unit inferred
Description: as §1

Pseudomonas aeruginosa A [25] = test: MIC, microtitre using Nutrient broth; conditions: Pseudomonas aeruginosa; Pseudomanas aeruginosa A; Microtitre using Nutrient broth; inoculum 0.001 ml of an undilute overnight broth culture; unit inferred; read-out: MIC Broth
Description: as §1

[26] = system: Staphylococcus aureus Russell; test: MIC, microtitre using Nutrient broth; conditions: Staphylococcus aureus Russell; Microtitre using Nutrient broth; inoculum 0.001 ml of an undilute overnight broth culture; unit inferred; read-out: MIC Broth
Description: as §1

Streptococcus faecalis I [27] = test: MIC, microtitre using Nutrient broth; conditions: Enterococcus faecalis, inoculum 0.001 ml of an undilute overnight broth culture, unit inferred
Description: as §1

E. coli ESS [28] = test: MIC, microtitre using Nutrient broth; conditions: Escherichia coli, inoculum 0.001 ml of an undilute overnight broth culture, unit inferred
Description: as §1

Shigella sonnei MB 11967 [29] = test: MIC, microtitre using Nutrient broth; conditions: MB11967, inoculum 0.001 ml of an undilute overnight broth culture, unit inferred
Description: as §1

Proteus morganii I580 [30] = test: MIC, microtitre using Nutrient broth; conditions: Morganella morganii, inoculum 0.001 ml of an undilute overnight broth culture, unit inferred
Description: as §1

[31] = system: Staphylococcus aureus Oxford; test: MIC, microtitre using Nutrient broth; conditions: Staphylococcus aureus Oxford; Microtitre using Nutrient broth; inoculum 0.001 ml of an undilute overnight broth culture; unit inferred; read-out: MIC Broth
Description: as §1

Klebsiella aerogenes A [32] = test: MIC, microtitre using Nutrient broth; conditions: Klebsiella aerogenes A; Microtitre using Nutrient broth; inoculum 0.001 ml of an undilute overnight broth culture; unit inferred; read-out: MIC Broth
Description: as §1

Citrobacter freundii E8 [33] = test: MIC, microtitre using Nutrient broth; conditions: inoculum 0.001 ml of an undilute overnight broth culture, unit inferred
Description: as §1

`NCC1=C(C(=O)O)N2C(=O)C[C@H]2S1` [compound 37, 2-Aminomethylpenem-3-carboxylic acid] was tested, and the MIC (Escherichia coli JT 39 [1]) was 50 µg/mL, the MIC (Serratia marcescens US20 [2]) was 25 µg/mL and the MIC (Proteus rettgeri WM16) was > 50 µg/mL. For the same molecule, the MIC (Proteus vulgaris W091) was > 50 µg/mL, the MIC [3] was 1.25 µg/mL and the MIC (Proteus mirabilis C977 [4]) was 25 µg/mL. For the same molecule, the MIC (Enterobacter cloacae N1 [5]) was 50 µg/mL, the MIC (Escherichia coli 0111 [6]) was 25 µg/mL and the MIC (Pseudomonas aeruginosa A [7]) was 12.5 µg/mL. The MIC [8] was 5 µg/mL, the MIC (Streptococcus faecalis I [9]) was > 50 µg/mL and the MIC (E. coli ESS [10]) was 5 µg/mL. The MIC (Shigella sonnei MB 11967 [11]) was 12.5 µg/mL, the MIC (Proteus morganii I580 [12]) was > 50 µg/mL and the MIC [13] was 0.5 µg/mL. For the same molecule, the MIC (Bacillus subtilis A) was 2.5 µg/mL, the MIC [14] was 5 µg/mL and the MIC (Klebsiella aerogenes A [15]) was 50 µg/mL. For the same molecule, the MIC [16] was 12.5 µg/mL, the MIC [17] was > 50 µg/mL and the MIC (Citrobacter freundii E8 [18]) was 12.5 µg/mL. For the same molecule, the MIC (Escherichia coli JT 39 [19]) was 16 µg/mL (≈ 79.9 µM), the MIC (Serratia marcescens US20 [20]) was 16 µg/mL (≈ 79.9 µM) and the MIC [21] was 1 µg/mL (≈ 4.99 µM). The MIC (Proteus mirabilis C977 [22]) was 8 µg/mL (≈ 40 µM), the MIC (Enterobacter cloacae N1 [23]) was 16 µg/mL (≈ 79.9 µM) and the MIC (Escherichia coli 0111 [24]) was 8 µg/mL (≈ 40 µM). It also gave an MIC (Pseudomonas aeruginosa A [25]) of 1 µg/mL (≈ 4.99 µM), an MIC [26] of 4 µg/mL (≈ 20 µM) and an MIC (Streptococcus faecalis I [27]) of 62 µg/mL (≈ 310 µM). It also gave an MIC (E. coli ESS [28]) of 4 µg/mL (≈ 20 µM), an MIC (Shigella sonnei MB 11967 [29]) of 4 µg/mL (≈ 20 µM) and an MIC (Proteus morganii I580 [30]) of 16 µg/mL (≈ 79.9 µM). For the same molecule, the MIC [31] was 2 µg/mL (≈ 9.99 µM), the MIC (Klebsiella aerogenes A [32]) was 8 µg/mL (≈ 40 µM) and the MIC (Citrobacter freundii E8 [33]) was 0.5 µg/mL (≈ 2.5 µM).
